According to patent publication US10456407B2, “Combination therapy for treating cancer” (Epizyme, Inc., priority 2015, dated 2019):

Tests used:
SU-DHL10 cells = tested on: SU-DHL10 cells
Protocol: After 3 days of co-treatment, cell viability was measured via ATP content using CellTiter-Glo®
Synergy quantification is performed using the Chou-Talalay method^3 for drug combination. The Combination Index (CI) equation offers a quantitative definition for additivity (CI=1), synergism (CI<1), and antagonism (CI>1). This equation used Fa values from a constant ratio of drug combination to determine CI values. […] These Fa-CI plots are generated using the Calcusyn software.
After 3 days of co-treatment (5 days for Toledo assays), cell viability was measured via ATP content using CellTiter-Glo® (Promega) and luminescence was detected using a SpectraMax M5 microplate reader (Molecular Devices).
Synergy quantification is performed using the Chou-Talalay method for drug combination (Ref 1). The Combination Index (CI) equation offers a quantitative definition for additivity (CI=1), synergism (CI<1), and antagonism (CI>1). This equation used fractional effect (Fa) values from a constant ratio of drug combination to determine CI values. […] These Fa-CI plots are generated using the Calcusyn for Windows software (Ref2).
Dose responses were plotted using Graphpad Prism and either 50% or 60% inhibitory concentrations were interpolated from the dose response curves.

OCI-Ly19 cells = experiment: RT2 Glucocorticoid signaling PCR array, OCI-LY19 (Table 4a, printed OCT) cell line; type: cell-based; conditions: vs DMSO
From the text: (§1) Expression levels of (A). Sestrin; (B). TNF and (C) GILZ normalized to DMSO controls for each cell line with the indicated single agent or combination.

SU-DHL4 cells [1] = experiment: RT2 Glucocorticoid signaling PCR array, SU-DHL4 (SUDHL4) cell line (Table 4f); type: cell-based; conditions: SUDHL4, 4 days, vs DMSO
From the text: as §1

H3K27 acetylation = conditions: WSU-DLCL2, OCI-LY19, RL cells; 4 days
RL cells = experiment: RT2 Glucocorticoid signaling PCR array, RL (Table 4e, printed RI) cell line; type: cell-based; conditions: 4 days, Cpd44 1 uM, Pred 10-fold below 4-day IC50, vs DMSO, B2M-normalized
SU-DHL4 cells [2] = experiment: RT2 Glucocorticoid signaling PCR array, SU-DHL4 (SUDHL4) cell line (Table 4f); type: cell-based; conditions: SUDHL4, 4 days, vs DMSO; remark: listed apart in the source

Compound: C[C@]12C=CC(=O)C=C1CC[C@@H]1[C@@H]2[C@@H](O)C[C@@]2(C)[C@H]1CC[C@]2(O)C(=O)CO [Prednisolone, prednisolone]
- Summary of Combinations with Compound 44: potency enhanced (SU-DHL10 cells; SU-DHL 10 (EZH2 mutant GCB), drug combined with Compound 44): potency enhanced 3x
- growth inhibition by the drug by itself (SU-DHL10 cells; SU-DHL10, single agent): no sensitivity
- ΔΔCT, AFF1 (OCI-Ly19 cells; gene AFF1): −0.304
- ΔΔCT, AMPD3 (OCI-Ly19 cells; gene AMPD3): −0.109
- ΔΔCT, ANXA4 (OCI-Ly19 cells; gene ANXA4): 0.189
- ΔΔCT, CEBPA (OCI-Ly19 cells; gene CEBPA): 0.031
- ΔΔCT, CREB1 (OCI-Ly19 cells; gene CREB1): 0.060
- ΔΔCT, CREB3 (OCI-Ly19 cells; gene CREB3): −0.156
- ΔΔCT, GHRHR (OCI-Ly19 cells; gene GHRHR): −2.603
- ΔΔCT, GOT1 (OCI-Ly19 cells; gene GOT1): 0.094
- ΔΔCT, PER1 (OCI-Ly19 cells; gene PER1): 0.263
- ΔΔCT, RGS2 (OCI-Ly19 cells; gene RGS2): 0.390
- ΔΔCT, SPSB1 (OCI-Ly19 cells; gene SPSB1): 0.387
- ΔΔCT, TBL1XR1 (OCI-Ly19 cells; gene TBL1XR1): −0.234
- ΔΔCT, TNF (OCI-Ly19 cells; gene TNF): −0.773
- ΔΔCT, VLDLR (OCI-Ly19 cells; gene VLDLR): 0.081
- ΔΔCT, BCL6 (SU-DHL4 cells [1]): −0.793
- ΔΔCT, CEBPB (SU-DHL4 cells [1]): 0.528
- ΔΔCT, DDIT4 (SU-DHL4 cells [1]): −1.931
- ΔΔCT, DUSP1 (SU-DHL4 cells [1]): −1.093
- ΔΔCT, NFKBIA (SU-DHL4 cells [1]): −0.710
- ΔΔCT, PDP1 (SU-DHL4 cells [1]): −0.521
- ΔΔCT, POU2F2 (SU-DHL4 cells [1]): −0.675
- ΔΔCT, RASA3 (SU-DHL4 cells [1]): −0.723
- ΔΔCT, SPHK1 (SU-DHL4 cells [1]): 0.331
- ΔΔCT, STAT5A (SU-DHL4 cells [1]): −0.389
- ΔΔCT, TNF (SU-DHL4 cells [1]): −2.845
- ΔΔCT, VDR (SU-DHL4 cells [1]): −0.996
- ΔΔCT, VLDLR (SU-DHL4 cells [1]): 1.191
- ΔΔCT, ZNF281 (SU-DHL4 cells [1]): −0.739
- H3K27 acetylation levels (H3K27 acetylation): not globally affected
- ΔΔCT (RL cells; ADARB1 mRNA): 0.413
- ΔΔCT (RL cells; AFF1 mRNA): −1.390
- ΔΔCT (RL cells; AK2 mRNA): 0.686
- ΔΔCT (RL cells; AMPD3 mRNA): −0.544
- ΔΔCT (RL cells; ANGPTL4 mRNA): 1.668
- ΔΔCT (RL cells; ANXA4 mRNA): 0.131
- ΔΔCT (RL cells; ARID68 mRNA): 0.833
- ΔΔCT (RL cells; ASPH mRNA): 0.771
- ΔΔCT (RL cells; BCL6 mRNA): 0.937
- ΔΔCT (RL cells; CEBPB mRNA): 2.638
- ΔΔCT (RL cells; CREB1 mRNA): 0.483
- ΔΔCT (RL cells; CREB3L4 mRNA): 0.129
- ΔΔCT (RL cells; DDIT4 mRNA): 1.431
- ΔΔCT (RL cells; DUSP1 mRNA): −0.153
- ΔΔCT (RL cells; EDN1 mRNA): 6.595
- ΔΔCT (RL cells; EHD3 mRNA): 0.055
- ΔΔCT (RL cells; FK8PS mRNA): −0.333
- ΔΔCT (RL cells; FOSL2 mRNA): 2.300
- ΔΔCT (RL cells; GDPD1 mRNA): 0.711
- ΔΔCT (RL cells; GLUL mRNA): 1.007
- ΔΔCT (RL cells; GOT1 mRNA): 1.467
- ΔΔCT (RL cells; H6PD mRNA): 0.935
- ΔΔCT (RL cells; HNRPLL mRNA): 0.789
- ΔΔCT (RL cells; IL1RN mRNA): −0.808
- ΔΔCT (RL cells; IL6R mRNA): 0.885
- ΔΔCT (RL cells; IL10 mRNA): −0.083
- ΔΔCT (RL cells; KLF13 mRNA): 0.346
- ΔΔCT (RL cells; LOX mRNA): −0.132
- ΔΔCT (RL cells; MT2A mRNA): 1.656
- ΔΔCT (RL cells; NFKBIA mRNA): 0.853
- ΔΔCT (RL cells; NR3C1 mRNA): 0.952
- ΔΔCT (RL cells; PDCD7 mRNA): 0.394
- ΔΔCT (RL cells; PDP1 mRNA): 0.742
- ΔΔCT (RL cells; PER1 mRNA): 2.230
- ΔΔCT (RL cells; PER2 mRNA): 0.250
- ΔΔCT (RL cells; PLEKHF1 mRNA): 1.075
- ΔΔCT (RL cells; POU2F2 mRNA): 0.797
- ΔΔCT (RL cells; RA5A3 mRNA): 1.543
- ΔΔCT (RL cells; RGS2 mRNA): 0.772
- ΔΔCT (RL cells; SGK1 mRNA): 0.848
- ΔΔCT (RL cells; SLC10A6 mRNA): −1.725
- ΔΔCT (RL cells; SNTA1 mRNA): 1.144
- ΔΔCT (RL cells; SPHK1 mRNA): 2.618
- ΔΔCT (RL cells; SPSB1 mRNA): 2.005
- ΔΔCT (RL cells; STAT5A mRNA): 0.789
- ΔΔCT (RL cells; STAT5B mRNA): 0.512
- ΔΔCT (RL cells; TBL1XR1 mRNA): 0.794
- ΔΔCT (RL cells; TNF mRNA): −0.598
- ΔΔCT (RL cells; TNFAIP3 mRNA): 1.561
- ΔΔCT (RL cells; TSC22D3 mRNA): −1.431
- ΔΔCT (RL cells; USP2 mRNA): −0.661
- ΔΔCT (RL cells; USPS4 mRNA): 0.491
- ΔΔCT (RL cells; VDR mRNA): 1.247
- ΔΔCT (RL cells; VLDLR mRNA): −1.862
- ΔΔCT (RL cells; ZFP36 mRNA): 0.925
- ΔΔCT (RL cells; ZNF281 mRNA): 0.371
- ΔΔCT, ADARB1 (SU-DHL4 cells [2]): −0.516
- ΔΔCT, AFF1 (SU-DHL4 cells [2]): −0.429
- ΔΔCT, AK2 (SU-DHL4 cells [2]): −1.076
- ΔΔCT, AMPD3 (SU-DHL4 cells [2]): −0.891
- ΔΔCT, ANGPTL4 (SU-DHL4 cells [2]): −1.047
- ΔΔCT, ANXA4 (SU-DHL4 cells [2]): −0.890
- ΔΔCT, ARID68 (SU-DHL4 cells [2]): −0.131
- ΔΔCT, ASPH (SU-DHL4 cells [2]): −0.451
- ΔΔCT, ATF4 (SU-DHL4 cells [2]): −0.279
- ΔΔCT, CEBPA (SU-DHL4 cells [2]): −0.301
- ΔΔCT, CREB1 (SU-DHL4 cells [2]): −0.548
- ΔΔCT, CREB3 (SU-DHL4 cells [2]): −0.560
- ΔΔCT, CREB3L4 (SU-DHL4 cells [2]): −0.199
- ΔΔCT, CYB561 (SU-DHL4 cells [2]): −0.720
- ΔΔCT, EHD3 (SU-DHL4 cells [2]): −1.325
- ΔΔCT, FK8PS (SU-DHL4 cells [2]): −1.582
- ΔΔCT, GDPD1 (SU-DHL4 cells [2]): −0.409
- ΔΔCT, GHRHR (SU-DHL4 cells [2]): 0.184
- ΔΔCT, GOT1 (SU-DHL4 cells [2]): −0.402
- ΔΔCT, H6PD (SU-DHL4 cells [2]): 0.160
- ΔΔCT, HNRPLL (SU-DHL4 cells [2]): −0.286
- ΔΔCT, IL6R (SU-DHL4 cells [2]): −0.524
- ΔΔCT, IL10 (SU-DHL4 cells [2]): −0.130
- ΔΔCT, KLF9 (SU-DHL4 cells [2]): −0.821
- ΔΔCT, KLF13 (SU-DHL4 cells [2]): −0.934
- ΔΔCT, MT2A (SU-DHL4 cells [2]): 0.129
- ΔΔCT, NR3C1 (SU-DHL4 cells [2]): −0.427
- ΔΔCT, PDCD7 (SU-DHL4 cells [2]): 0.403
- ΔΔCT, PER1 (SU-DHL4 cells [2]): −0.786
- ΔΔCT, PER2 (SU-DHL4 cells [2]): −1.101
- ΔΔCT, PIK3R1 (SU-DHL4 cells [2]): −0.892
- ΔΔCT, PLEKHF1 (SU-DHL4 cells [2]): −1.285
- ΔΔCT, POU2F1 (SU-DHL4 cells [2]): −0.432
- ΔΔCT, RGS2 (SU-DHL4 cells [2]): −0.372
- ΔΔCT, RHOB (SU-DHL4 cells [2]): 0.724
- ΔΔCT, SGK1 (SU-DHL4 cells [2]): −0.346
- ΔΔCT, SLC10A6 (SU-DHL4 cells [2]): −3.874
- ΔΔCT, SLC19A2 (SU-DHL4 cells [2]): −0.995
- ΔΔCT, SLC22A5 (SU-DHL4 cells [2]): −0.171
- ΔΔCT, SNTA1 (SU-DHL4 cells [2]): −0.687
- ΔΔCT, SPSB1 (SU-DHL4 cells [2]): 0.068
- ΔΔCT, STAT5B (SU-DHL4 cells [2]): −0.268
- ΔΔCT, TBL1XR1 (SU-DHL4 cells [2]): −0.721
- ΔΔCT, TNFAIP3 (SU-DHL4 cells [2]): 0.835
- ΔΔCT, TSC22D3 (SU-DHL4 cells [2]): −2.169
- ΔΔCT, USP2 (SU-DHL4 cells [2]): −1.681
- ΔΔCT, USPS4 (SU-DHL4 cells [2]): −1.060
- ΔΔCT, ZFP36 (SU-DHL4 cells [2]): −0.541
- ΔΔCT, ZHX3 (SU-DHL4 cells [2]): −0.868
